Laboratory results reported in patent US20240360137A1 (Novartis AG, priority 2023, published 2024).

Tests used:
Assay in all cases: CDKi biochemical assay (TR-FRET, phosphorylation of S780 on RB1 peptide)
CDK2/CyclinE1 = CDK2/CyclinE1 (Homo sapiens, UniProt P24941); conditions: CDK2/CyclinE1 100 pM, 1 mM ATP, 60 min at 25° C.
Description: (§1) Biochemical assays measured the inhibitory effects of compounds in this disclosure on the enzymatic activity of CDK enzyme in complex with Cyclin protein partner by phosphorylation of Ser-780 (S780) on retinoblastoma protein peptide (RB1) in the presence of 1 mM adenosime-5-triphosphate (ATP) and varying concentration of test compound in 20 mM 2-[4-(2-hydroxyethyl)paperazin-1-yl] ethanesulfonic acid (HEPES), pH 7.5, 10 mM MgCl2, 1 mM dithiothreitol (DTT), 0.01% bovine serum albumin (BSA), 0.005% Tween 20. Total Reaction volume of 10 μL proceeded for 60 minutes at room temperature (25° C.) and were quenched with 5 μL of 200 mM 2′,2″,2′″-(Ethane-1,2-diyldinitrilo)tetraacetic acid (EDTA) pH 8.0 before addition of 5 μL detection solution containing 100 nM fluorophore conjugate streptavidin allophycocyanin (SA-APC), 2 nM Europium labelled Anti-p-RB(S780)-K (Perkin Elmer, 64CUSKAY), 50 mM HEPES, pH 7.5, 400 mM potassium fluoride (KF), 0.1% BSA, and 0.01% Tween-20. Phosphorylation of S780 on RB1 peptide (His-MBP-RB1[773-924]-SEQ ID NO. 9) was detected by TR-FRET after 3 hour incubation with detection solution. Percent phosphorylation activity was plotted against log concentration of compound to generate an apparent ICSO. The following CDK enzyme in complex with different cyclin proteins and protein peptide substrate were used in these assays: • CDK1/CyclinB1, Avi-tag, 10 pM used in the assay • CDK2/CyclinE1, Avi-tag, 100 pM used in the assay • CDK4/cyclinD1, Avi-tag, 20 pM used in the assay • CDK6/cyclinD3, Avi-tag, 10 pM used in the assay • His-MBP-RB1[773-924], Avi-tag, 200 nM used in the assay
(§2) The avi-tag is a C-terminal fusion on the CDK1/2/4/6 sequence in each of these two-protein complexes. The known avi-tag sequence, […] (SEQ ID NO. 10), is a substrate for E. coli biotin ligase BirA, which covalently attaches a biotin molecule to the e-amino group of the lysine in that sequence. The avi-tag is attached with an 8 amino-acid linker sequence GGSGGGGS (SEQ ID NO. 11), resulting in the full C-terminal fusion
(§3) Recombinant proteins were generated as N-terminal fusions of 9× His tag—E. coli Maltose Binding Protein (MBP), with or without a C-terminal Avi-tag.^1 CDK2 and His-MBP-RB1[773-924]-c-avi were expressed in E. coli while the remainder were expressed in Sf21 insect cells. Genes were synthesized commercially (GeneArt and Twist Bioscience) using codon frequencies appropriate to the respective organisms and proprietary codon optimization strategies, and inserted into pET 24 (E. coli) or pDEST8 (insect) vectors already containing the 9× His-MBP tag using standard methods of PCR and Gibson Assembly.^2 E. coli expression was performed by auto-induction overnight at 18 or 21 C. For insect cell expression, bacmids and viruses were created,^3 then used to synchronously infect Sf21 insect cells with harvest at 40-48 hrs., per standard protocols.^4
(§4) For CDK2/Cyclin E and CDK1/Cyclin B, the CDK and Cyclin proteins were expressed separately, lysed by sonication and clarified by centrifugation. The fusion proteins were each separately purified by immobilized metal ion affinity chromatography (IMAC) (5 mL HisTrap, Cytiva) and Superdex 200 26/60 (Cytiva) size-exclusion and complexed in vitro (1-3 hrs incubation at room temperature) prior to tag cleavage by recombinant his-tagged Tobacco Etch Virus protease or his-tagged Human rhinovirus 3C protease, as appropriate. The cleaved complex is further purified by Superdex 75 26/60 (Cytiva) size-exclusion followed by reverse-IMAC, in which the complex is in the column flow-through and residual His-MBP and his-tagged proteases are retained. The final complex is concentrated as desired by centrifugal concentration (Amicon Ultra 10,000 Da MWCO 15 mL concentrators, Millipore).
For E. coli expressed CDK2 and His-MBP-RB1[773-924]-c-avi, the proteins were biotinylated in vitro after the first IMAC step.^1
(§5) For the is-MBP-RB1[773-924]-c-avi, the protein was lysed by sonication and clarified by centrifugation. […]

CDK1/CyclinB1 = CDK1/CyclinB1 (Homo sapiens, UniProt P06493); conditions: CDK1/CyclinB1 10 pM, 1 mM ATP, 60 min at 25° C.
Description: as §1, §2, §3, §4, §5

CDK4/cyclinD1 = CDK4/cyclinD1 (Homo sapiens, UniProt P11802); conditions: CDK4/cyclinD1 20 pM, 1 mM ATP, 60 min at 25° C.
Description: as §1, §2, §3
(§6) For CDK4/Cyclin D1 and CDK6/Cyclin D3, the complexes were expressed by simultaneous co-infection of insect cells by three separate viruses including one expressing untagged E. coli BirA. The expression media is supplemented with 50 uM d-biotin. The resulting protein complexes purified similarly. After lysis and clarification, the complex is purified by IMAC, Superdex 200 26/60 size exclusion, tag cleavage by human rhinovirus 3C protease, Superdex 75 26/60 size exclusion and reverse IMAC. BirA is typically not retained on the first IMAC, and excess CDK or Cyclin monomer is separated on the Superdex 200 size exclusion. Cleaved His-MBP and remaining monomer are removed by the Superdex 75 size exclusion and the reverse IMAC step. Final concentration by centrifugal concentrators as described above.
as §5

CDK6/cyclinD3 = CDK6/cyclinD3 (Homo sapiens, UniProt Q00534); conditions: CDK6/cyclinD3 10 pM, 1 mM ATP, 60 min at 25° C.
Description: as §1, §2, §3, §6, §5

Row | IC50 (CDK2/CyclinE1) | IC50 (CDK1/CyclinB1) | IC50 (CDK4/cyclinD1) | IC50 (CDK6/cyclinD3) | Compound
1 | 12 nM | 2020 nM | 3910 nM | ≥ 10000 nM | O=C1N([C@@H]2CCC[C@@H](O)C2)c2nc(Nc3c[nH]nc3O[C@@H]3COC[C@H]3F)ncc2C12CC2 [Example 24, 2′-((3-(((3R,4R)-4-fluorotetrahydrofuran-3-yl)oxy)-1H-pyrazol-4-yl)amino)-7′-((1R,3R)-3-hydroxycyclohexyl)spiro[cyclopropane-1,5′-pyrrolo[2,3-d]pyrimidin]-6′(7′H)-one]
2 | 5 nM | 730 nM | 2680 nM | 5090 nM | O=C1N([C@@H]2CCC[C@@H](O)C2)c2nc(Nc3c[nH]nc3OCC(F)F)ncc2C12CC2 [Example 41, 2′-((3-(2,2-difluoroethoxy)-1H-pyrazol-4-yl)amino)-7′-((1R,3R)-3-hydroxycyclohexyl)spiro[cyclopropane-1,5′-pyrrolo[2,3-d]pyrimidin]-6′(7′H)-one]
3 | 255 nM | ≥ 10000 nM | ≥ 10000 nM | ≥ 10000 nM | O=C1N([C@@H]2CCC[C@@H](O)C2)c2nc(Nc3c[nH]nc3OC3CCOCC3)ncc2C12CC2 [Example 74, 7′-((1R,3R)-3-hydroxycyclohexyl)-2′-((3-((tetrahydro-2H-pyran-4-yl)oxy)-1H-pyrazol-4-yl)amino)spiro[cyclopropane-1,5′-pyrrolo[2,3-d]pyrimidin]-6′(7′H)-one]
4 | 30 nM | 1550 nM | ≥ 10000 nM | ≥ 10000 nM | O=C1N([C@@H]2CCC[C@@H](O)C2)c2nc(Nc3c[nH]nc3C3CC3)ncc2C12CC2 [Example 14, 2′-((3-cyclopropyl-1H-pyrazol-4-yl)amino)-7′-((1R,3R)-3-hydroxycyclohexyl)spiro[cyclopropane-1,5′-pyrrolo[2,3-d]pyrimidin]-6′(7′H)-one]
5 | 11 nM | 1920 nM | 1280 nM | 3180 nM | O=C1N([C@@H]2CCC[C@@H](O)C2)c2nc(Nc3c[nH]nc3O[C@H]3COC[C@H]3F)ncc2C12CC2 [Example 27, 2′-((3-(((3S,4R)-4-fluorotetrahydrofuran-3-yl)oxy)-1H-pyrazol-4-yl)amino)-7′-((1R,3R)-3-hydroxycyclohexyl)spiro[cyclopropane-1,5′-pyrrolo[2,3-d]pyrimidin]-6′(7′H)-one]
6 | 96 nM | ≥ 10000 nM | ≥ 10000 nM | ≥ 10000 nM | COC(=O)c1n[nH]cc1Nc1ncc2c(n1)N([C@@H]1CCC[C@@H](O)C1)C(=O)C21CC1 [Example 4, methyl 4-((7′-((1R,3R)-3-hydroxycyclohexyl)-6′-oxo-6′,7′-dihydrospiro[cyclopropane-1,5′-pyrrolo[2,3-d]pyrimidin]-2′-yl)amino)-1H-pyrazole-3-carboxylate]
7 | 46 nM | ≥ 10000 nM | 8650 nM | 9190 nM | O=C1N([C@@H]2CCC[C@@H](O)C2)c2nc(Nc3c[nH]nc3-c3cccnc3)ncc2C12CC2 [Example 61, 7′-((1R,3R)-3-hydroxycyclohexyl)-2′-((3-(pyridin-3-yl)-1H-pyrazol-4-yl)amino)spiro[cyclopropane-1,5′-pyrrolo[2,3-d]pyrimidin]-6′(7′H)-one]
8 | 6 nM | 820 nM | 7690 nM | ≥ 10000 nM | O=C1N([C@@H]2CCC[C@@H](O)C2)c2nc(Nc3c[nH]nc3O[C@@H]3CC3(F)F)ncc2C12CC2 [Example 70, 2′-((3-((R)-2,2-difluorocyclopropoxy)-1H-pyrazol-4-yl)amino)-7′-((1R,3R)-3-hydroxycyclohexyl)spiro[cyclopropane-1,5′-pyrrolo[2,3-d]pyrimidin]-6′(7′H)-one]
9 | 125 nM | ≥ 10000 nM | ≥ 10000 nM | ≥ 10000 nM | CN1C[C@@H](F)[C@H](Oc2n[nH]cc2Nc2ncc3c(n2)N([C@@H]2CCC[C@@H](O)C2)C(=O)C32CC2)C1 [Example 50, 2′-((3-(((3R,4R)-4-fluoro-1-methylpyrrolidin-3-yl)oxy)-1H-pyrazol-4-yl)amino)-7′-((1R,3R)-3-hydroxycyclohexyl)spiro[cyclopropane-1,5′-pyrrolo[2,3-d]pyrimidin]-6′(7′H)-one]
10 | 49 nM | ≥ 10000 nM | ≥ 10000 nM | ≥ 10000 nM | O=C1N([C@@H]2CCC[C@@H](O)C2)c2nc(Nc3c[nH]nc3-c3cnn4c3CCCC4)ncc2C12CC2 [Example 73, 7′-((1R,3R)-3-hydroxycyclohexyl)-2′-((3-(4,5,6,7-tetrahydropyrazolo[1,5-a]pyridin-3-yl)-1H-pyrazol-4-yl)amino)spiro[cyclopropane-1,5′-pyrrolo[2,3-d]pyrimidin]-6′(7′H)-one]
11 | 268 nM | ≥ 10000 nM | ≥ 10000 nM | ≥ 10000 nM | O=C1N([C@@H]2CCC[C@@H](O)C2)c2nc(Nc3cnn4c3CNCC4)ncc2C12CC2 [Example 9, 7′-((1R,3R)-3-hydroxycyclohexyl)-2′-((4,5,6,7-tetrahydropyrazolo[1,5-a]pyrazin-3-yl)amino)spiro[cyclopropane-1,5′-pyrrolo[2,3-d]pyrimidin]-6′(7′H)-one]
12 | 12 nM | 920 nM | 5280 nM | 7100 nM | O=C1N([C@@H]2CCC[C@@H](O)C2)c2nc(Nc3c[nH]nc3Cl)ncc2C12CC2 [Example 13, 2′-((3-chloro-1H-pyrazol-4-yl)amino)-7′-((1R,3R)-3-hydroxycyclohexyl)spiro[cyclopropane-1,5′-pyrrolo[2,3-d]pyrimidin]-6′(7′H)-one]

Row | Compound | IC50 (CDK2/CyclinE1) | IC50 (CDK1/CyclinB1) | IC50 (CDK4/cyclinD1) | IC50 (CDK6/cyclinD3)
13 | CO[C@H]1C[C@H](Oc2n[nH]cc2Nc2ncc3c(n2)N([C@@H]2CCC[C@@H](O)C2)C(=O)C32CC2)C1 [Example 82, 7′-((1R,3R)-3-hydroxycyclohexyl)-2′-((3-((1r,3R)-3-methoxycyclobutoxy)-1H-pyrazol-4-yl)amino)spiro[cyclopropane-1,5′-pyrrolo[2,3-d]pyrimidin]-6′(7′H)-one] | 26 nM | 2530 nM | ≥ 10000 nM | ≥ 10000 nM
14 | O=C1N([C@@H]2CCC[C@@H](O)C2)c2nc(Nc3c[nH]nc3OC3CCC3)ncc2C12CC2 [Example 40, 2′-((3-cyclobutoxy-1H-pyrazol-4-yl)amino)-7′-((1R,3R)-3-hydroxycyclohexyl)spiro[cyclopropane-1,5′-pyrrolo[2,3-d]pyrimidin]-6′(7′H)-one] | 26 nM | 2890 nM | ≥ 10000 nM | ≥ 10000 nM
